Results taken from patent US20040265357A1, “Combination of liponic acid and glutamine in food and pharmaceutical products” (priority 2001, published 2004).
Read-outs that look alike come from different tables or passages of the source.

Key:
[1] = tested on: experimentally induced cerebral ischemia; conditions: cited from earlier work
experimental rat model = conditions: cited from earlier work; for effectiveness against buthionine sulfoximine-induced cataract: comparison of enantiomers and racemate
rats = conditions: oral administration; cited from earlier work
[2] = tested on: U937 cells, a human myelomonocyclic cell line; assay: Increase in intracellular glutathione levels, U937 cells (GSH by HPLC); type: cell-based
Protocol: (§1) Human Jurkat T cells and U937 cells, a human myelomonocyclic cell line, were used for the experiments. Jurkat and U937 cells were cultivated in RPMI 1640 medium (Bio Whittaker, Belgium)—supplemented with 10% heat-inactivated fetal calf serum (FCS; Linaris, Germany), 1% penicillin/streptomycin (Life Technologies, Scotland) and 2 mM L-glutamine (Sigma, Mont.)—under standard conditions (95% humidity, 5% CO2 and 37° C.). After harvesting, the cells were washed 2× with PBS, resuspended in standard medium (RPMI 1640 with 10% FCS, 1% streptomycin/penicillin, without L-glutamine) in a concentration of 2×10^5 cells/ml and transferred into […] culture bottles. The cells were treated with and without addition of 2 mM glutamine and in each case with or without 100 μM α-lipoic acid over a period of 4, 8, 24 or 48 h. After the respective treatment period had elapsed, the cells were harvested and washed 2× with PBS. 2×10^6 cells were resuspended in sulfosalicylic acid (6.5% in distilled water; Marck, Germany) and incubated on ice for 15 min. The supernatant after pelleting of the cells (5 000 g, 10 min) was aspirated off and stored at −20° C. until glutathione was determined by HPLC.

mice = conditions: oral administration; cited from earlier work
Human Jurkat T cells = assay: Increase in intracellular glutathione levels, Jurkat T cells (GSH by HPLC); type: cell-based
Protocol: as §1

aged mice = conditions: cited from earlier work
diabetes patients = conditions: daily 600 mg for more than 3 months; cited from earlier work
mice 6-8 weeks old = conditions: mice on vitamin E-deficient diet; 1.65 g/kg of body weight; cited from earlier work
[3] = 0.05 mM glutamine added to culture medium
[4] = 2 mM glutamine added to culture medium

## O=C(O)CCCC[C@@H](S)CCS (racemic) [dihydrolipoic acid]
[1]; 50 and 100 mg/kg body weight
  infarct size: reduction in the infarct size

## O=C(O)CCCCC1CCSS1 (racemic) [racemic mixture]
Experimental rat model
  effectiveness against buthionine sulfoximine-induced cataract: effective

## O=C(O)CCCC[C@H]1CCSS1 (single isomer, unassigned) [S enantiomer]
Experimental rat model
  effectiveness against buthionine sulfoximine-induced cataract: effective

## O=C(O)CCCC[C@@H]1CCSS1 [(R)-α-lipoic acid, (R)-5-(1,2-dithiolan-3-yl) valeric acid]
rats
  mitochondrial function: improvement in mitochondrial function
Experimental rat model
  effectiveness against buthionine sulfoximine-induced cataract: effective

## NC(=O)CCC(N)C(=O)O (stereo not drawn) [glutamine, 2-aminopentanoic acid 5-amide]
[2]; [3]
  concentration of reduced glutathione (GSH): no significant change
[2]; [4]
  concentration of reduced glutathione (GSH): significant increases
mice
  number of lymphocytes in Peyer's patches: increased number of lymphocytes
Human Jurkat T cells; [3]
  concentration of reduced glutathione (GSH): no significant change
Human Jurkat T cells; [4]
  concentration of reduced glutathione (GSH): significant increases

## O=C(O)CCCCC1CCSS1 (stereo not drawn) [lipoic acid, 5-(1,2-dithiolan-3-yl)valeric acid]
Experimental rat model; rat model, subcutaneous injection 25 mg/kg body weight twice
  cataract induced by buthionine sulfoximine: significant reduction
Aged mice
  long-term memory: improve the long-term memory
Diabetes patients
  oxidative stress: reduction in oxidative stress
Mice 6-8 weeks old
  symptoms of vitamin E deficiency phenomena (muscular dystrophy, weight loss): prevents the symptoms
[1]; iv, 25 mg/kg body weight
  infarct size: reduction in the infarct size
